# Measurements taken from PubChem BioAssay (NCI).
#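 Compound exposure: 48 hours, 5 concentrations, 96-well plates. GI50 marks 50% less growth. The concentration for full growth arrest is given as TGI.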
# What was measured:
# Test in all cases: inhibition of tumour cell growth, NCI panel, 48 h
# [1] = system: SW-620 colon
# [2] = system: SF-295 CNS
# [3] = system: M14 melanoma
# [4] = system: M19-MEL melanoma
# [5] = system: KM12 colon
# [6] = system: UACC-257 melanoma
# [7] = system: SNB-75 CNS
# [8] = system: CAKI-1 renal
# [9] = system: HCT-116 colon
# [10] = system: NCI-H460 lung
# [11] = system: NCI-H23 lung
# [12] = system: KM20L2 colon
# [13] = system: U251 CNS
# [14] = system: UACC-62 melanoma
# [15] = system: SK-OV-3 ovarian
# [16] = system: SK-MEL-28 melanoma
# [17] = system: IGROV1 ovarian
# [18] = system: SK-MEL-2 melanoma
# [19] = system: UO-31 renal
# [20] = system: HOP-92 NSCLC
# [21] = system: HOP-18 NSCLC
# [22] = system: RPMI-8226 leukemia
# [23] = system: COLO 205 colon
# [24] = system: OVCAR-5 ovarian
# [25] = system: SNB-19 CNS
# [26] = system: SN12C renal
# [27] = system: LOX IMVI melanoma
# [28] = system: NCI-H522 lung
# [29] = system: OVCAR-3 ovarian
# [30] = system: MALME-3M melanoma
# [31] = system: K-562 leukemia
# [32] = system: A498 renal
# [33] = system: RXF 393 renal
# [34] = system: TK-10 renal
# [35] = system: LXFL 529 NSCLC
# [36] = system: HL-60(TB) leukemia
# [37] = system: NCI-H226 lung
# [38] = system: CCRF-CEM leukemia
# [39] = system: 786-0 renal
# [40] = system: OVCAR-4 ovarian
# [41] = system: OVCAR-8 ovarian
# [42] = system: SF-268 CNS
# [43] = system: DLD-1 colon
# [44] = system: ACHN renal
# [45] = system: A549 NSCLC
# [46] = system: SF-539 CNS
# [47] = system: HT29 colon
# [48] = system: HCT-15 colon
# [49] = system: DMS 114 small cell lung
# [50] = system: EKVX NSCLC
# [51] = system: HOP-62 NSCLC
# [52] = system: HCC-2998 colon
# [53] = system: MOLT-4 leukemia
# [54] = system: XF 498 CNS
# [55] = system: SNB-78 CNS
# [56] = system: DMS 273 small cell lung
# [57] = system: SK-MEL-5 melanoma
# [58] = system: SR leukemia
# [59] = system: HS 578T breast
# [60] = system: MCF7 breast
# [61] = system: PC-3 prostate
# [62] = system: BT-549 breast
# [63] = system: MDA-N
# [64] = system: MDA-MB-231 breast
# [65] = system: T-47D breast
# [66] = system: MDA-MB-435
# [67] = system: DU-145 prostate
# [68] = system: NCI/ADR-RES ovarian
smiles,measurement,setting,value
CC(=O)[CH-]C(=O)c1ccccc1.CC(=O)[CH-]C(=O)c1ccccc1.CC(=O)[CH-]C(=O)c1ccccc1.[In+3],GI50,[1],53.1 µM
same,TGI,[1],> 100 µM
same,GI50,[2],24.2 µM
same,TGI,[2],93.5 µM
same,GI50,[3],26.8 µM
same,TGI,[3],> 100 µM
same,GI50,[4],28.8 µM
same,TGI,[4],> 100 µM
same,GI50,[5],61.7 µM
same,TGI,[5],> 100 µM
same,GI50,[6],46.2 µM
same,TGI,[6],> 100 µM
same,GI50,[7],19.8 µM
same,TGI,[7],> 100 µM
same,GI50,[8],99.7 µM
same,TGI,[8],> 100 µM
same,GI50,[9],9.32 µM
same,TGI,[9],> 100 µM
same,GI50,[10],16.6 µM
same,TGI,[10],> 100 µM
same,GI50,[11],30.9 µM
same,TGI,[11],> 100 µM
same,GI50,[12],39.4 µM
same,TGI,[12],> 100 µM
same,GI50,[13],22.8 µM
same,TGI,[13],> 100 µM
same,GI50,[14],32.9 µM
same,TGI,[14],> 100 µM
same,GI50,[15],29.2 µM
same,TGI,[15],70.9 µM
same,GI50,[16],34.2 µM
same,TGI,[16],> 100 µM
same,GI50,[17],91.4 µM
same,TGI,[17],> 100 µM
same,GI50,[18],13 µM
same,TGI,[18],34.2 µM
same,GI50,[19],29.7 µM
same,TGI,[19],94 µM
same,GI50,[20],17.8 µM
same,TGI,[20],49.8 µM
same,GI50,[21],43.5 µM
same,TGI,[21],77.1 µM
same,GI50,[22],19.2 µM
same,TGI,[22],64.4 µM
same,GI50,[23],31.9 µM
same,TGI,[23],85.4 µM
same,GI50,[24],42.7 µM
same,TGI,[24],> 100 µM
same,GI50,[25],> 100 µM
same,TGI,[25],> 100 µM
same,GI50,[26],21.2 µM
same,TGI,[26],> 100 µM
same,GI50,[27],11 µM
same,TGI,[27],> 100 µM
same,GI50,[28],21.8 µM
same,TGI,[28],59.8 µM
same,GI50,[29],78 µM
same,TGI,[29],> 100 µM
same,GI50,[30],25.2 µM
same,TGI,[30],84.1 µM
same,GI50,[31],31 µM
same,TGI,[31],> 100 µM
same,GI50,[32],23.2 µM
same,TGI,[32],56.8 µM
same,GI50,[33],48.3 µM
same,TGI,[33],> 100 µM
same,GI50,[34],> 100 µM
same,TGI,[34],> 100 µM
same,GI50,[35],25.5 µM
same,TGI,[35],> 100 µM
same,GI50,[36],14.5 µM
same,TGI,[36],41.2 µM
same,GI50,[37],24.7 µM
same,TGI,[37],84.3 µM
same,GI50,[38],11.6 µM
same,TGI,[38],49.4 µM
same,GI50,[39],61.5 µM
same,TGI,[39],> 100 µM
same,GI50,[40],78.8 µM
same,TGI,[40],> 100 µM
same,GI50,[41],24.9 µM
same,TGI,[41],> 100 µM
same,GI50,[42],19.9 µM
same,TGI,[42],> 100 µM
same,GI50,[43],24.4 µM
same,TGI,[43],> 100 µM
same,GI50,[44],35 µM
same,TGI,[44],> 100 µM
same,GI50,[45],48.8 µM
same,TGI,[45],> 100 µM
same,GI50,[46],21.6 µM
same,TGI,[46],> 100 µM
same,GI50,[47],31.9 µM
same,TGI,[47],> 100 µM
N#CNC(=NCCc1c[nH]c2ccccc12)Oc1ccccc1,TGI,[1],> 100 µM
same,TGI,[2],> 100 µM
same,TGI,[3],> 100 µM
same,TGI,[4],> 100 µM
same,TGI,[5],> 100 µM
same,TGI,[48],> 100 µM
same,TGI,[6],> 100 µM
same,TGI,[7],> 100 µM
same,TGI,[9],> 100 µM
same,TGI,[10],> 100 µM
same,TGI,[11],> 100 µM
same,TGI,[12],49.8 µM
same,TGI,[49],> 100 µM
same,TGI,[50],> 100 µM
same,TGI,[13],> 100 µM
same,TGI,[14],> 100 µM
same,TGI,[15],> 100 µM
same,TGI,[16],> 100 µM
same,TGI,[17],> 100 µM
same,TGI,[19],> 100 µM
same,TGI,[51],> 100 µM
same,TGI,[22],> 100 µM
same,TGI,[23],> 100 µM
same,TGI,[24],> 100 µM
same,TGI,[25],> 100 µM
same,TGI,[26],> 100 µM
same,TGI,[27],> 100 µM
same,TGI,[52],> 100 µM
same,TGI,[29],> 100 µM
same,TGI,[31],> 100 µM
same,TGI,[53],> 100 µM
same,TGI,[33],> 100 µM
same,TGI,[34],> 100 µM
same,TGI,[35],> 100 µM
same,TGI,[36],> 100 µM
same,TGI,[37],> 100 µM
same,TGI,[38],> 100 µM
same,TGI,[39],> 100 µM
same,TGI,[40],> 100 µM
same,TGI,[54],> 100 µM
same,TGI,[41],> 100 µM
same,TGI,[55],> 100 µM
same,TGI,[56],> 100 µM
same,TGI,[57],> 100 µM
same,TGI,[42],> 100 µM
same,TGI,[58],> 100 µM
same,TGI,[43],> 100 µM
same,TGI,[44],> 100 µM
same,TGI,[45],> 100 µM
same,TGI,[46],> 100 µM
same,TGI,[47],> 100 µM
CCO/C=N/C1=C(C#N)SC2=N/C(=C\c3ccccc3)C(=O)N21,TGI,[1],> 100 µM
same,TGI,[2],> 100 µM
same,TGI,[3],> 100 µM
same,TGI,[5],> 100 µM
same,TGI,[48],> 100 µM
same,TGI,[6],> 100 µM
same,TGI,[7],> 100 µM
same,TGI,[8],> 100 µM
same,TGI,[9],> 100 µM
same,TGI,[10],> 100 µM
same,TGI,[11],> 100 µM
same,TGI,[50],> 100 µM
same,TGI,[13],> 100 µM
same,TGI,[14],> 100 µM
same,TGI,[15],> 100 µM
same,TGI,[16],> 100 µM
same,TGI,[17],> 100 µM
same,TGI,[18],> 100 µM
same,TGI,[59],> 100 µM
same,TGI,[19],> 100 µM
same,TGI,[51],> 100 µM
same,TGI,[20],> 100 µM
same,TGI,[60],> 100 µM
same,TGI,[22],> 100 µM
same,TGI,[23],> 100 µM
same,TGI,[24],> 100 µM
same,TGI,[25],> 100 µM
same,TGI,[26],> 100 µM
same,TGI,[27],> 100 µM
same,TGI,[28],> 100 µM
same,TGI,[52],> 100 µM
same,TGI,[29],> 100 µM
same,TGI,[61],> 100 µM
same,TGI,[30],> 100 µM
same,TGI,[62],> 100 µM
same,TGI,[31],> 80.4 µM
same,TGI,[32],> 100 µM
same,TGI,[53],> 100 µM
same,TGI,[33],> 100 µM
same,TGI,[34],> 100 µM
same,TGI,[36],> 83.2 µM
same,TGI,[37],> 100 µM
same,TGI,[63],> 100 µM
same,TGI,[38],> 100 µM
same,TGI,[64],> 100 µM
same,TGI,[39],> 100 µM
same,TGI,[40],> 100 µM
same,TGI,[65],> 100 µM
same,TGI,[41],> 100 µM
same,TGI,[66],> 100 µM
same,TGI,[57],> 100 µM
same,TGI,[42],> 100 µM
same,TGI,[58],> 93.8 µM
same,TGI,[44],> 100 µM
same,TGI,[45],> 100 µM
same,TGI,[46],> 100 µM
same,TGI,[67],> 100 µM
same,TGI,[47],> 100 µM
same,TGI,[68],> 100 µM
